Several values for one entry are separate records, joined by “and”; a condition that tells them apart may be missing. Equal entries are not always repeated.
Tests used:
MHC-II DRB1*15:03 [1] = molecular target: T1, MHC-II DRB1*15:03 (Homo sapiens, UniProt P01903+P01911, Y59H); experiment: Cell-free REVEAL class II binding assay; conditions: signal of test peptide as percentage of allele-specific positive control peptide, fluorescence, conformation-specific monoclonal antibody
T1 construct: purchased ProImmune
Source text: (§1) We used a proprietary high throughput, REVEAL binding assay (ProImmune, www.proimmune.com) to estimate the binding of individual test peptides to the following MHC-II variants: DRB1*03:01, DRB1*04:01, DRB1*07:01, DRB1*11:01, DRB1*15:01 and DRB1*15:03 [28]. Detection of a peptide binding to each MHC-II protein is based on the presence or absence of the native conformation of the MHC-peptide complex. The peptide-MHC-II complex is detected by an increase in a fluorescence signal due to the binding of a specific monoclonal antibody. Each test-peptide is given a score relative to a positive control peptide, which is a known T-cell epitope for that MHC-II molecule. The score is reported quantitatively as a percentage of the signal generated by the test peptide compared with the positive control peptide. Assay performance is evaluated by including in each set of measurements an intermediate control peptide which is known to bind the MHC-II molecule but with a lower affinity than the positive control peptide. Note that the positive control peptide used to determine the binding score is different from the positive control peptides depicted in the figures, which are known T-cell epitopes identified in the FVIII molecule.

MHC-II DRB1*07:01 [2] = molecular target: T2, MHC-II DRB1*07:01 (Homo sapiens, UniProt P01903+P01911, A100R/A102G/A103Q/D57E/D86V/E43K/F76Y/K127E/L162R/M171V/P40G/Q125H/Q99D/R33Q/R42Y/R54Q/S133A/S66F/T210M/V115G/Y107V/Y59L/Y89S); experiment: Cell-free REVEAL class II binding assay; conditions: signal of test peptide as percentage of allele-specific positive control peptide, fluorescence, conformation-specific monoclonal antibody
Source text: as §1

MHC-II DRB1*15:01 [3] = molecular target: T3, MHC-II DRB1*15:01 (Homo sapiens, UniProt P01903+P01911); experiment: Cell-free REVEAL class II binding assay; conditions: signal of test peptide as percentage of allele-specific positive control peptide, fluorescence, conformation-specific monoclonal antibody
T3 construct: purchased ProImmune
Source text: as §1

MHC-II DRB1*04:01 [4] = molecular target: T4, MHC-II DRB1*04:01 (Homo sapiens, UniProt P01903+P01911, A100K/A169T/F76Y/I96L/K127E/L162R/M171V/N62H/P40V/Q125Y/R42H/S133A/S149N/S66Y/V115G/V209L/W38E); experiment: Cell-free REVEAL class II binding assay; conditions: signal of test peptide as percentage of allele-specific positive control peptide, fluorescence, conformation-specific monoclonal antibody
Source text: as §1

MHC-II DRB1*03:01 [5] = molecular target: T5, MHC-II DRB1*03:01 (Homo sapiens, UniProt P01903+P01911, A100K/A102G/A103R/A169T/F55Y/I96L/K41T/L162R/M171V/P40S/Q125H/Q178H/Q39Y/R42S/S66N/T106N/T262R/W38E/Y61H); experiment: Cell-free REVEAL class II binding assay; conditions: signal of test peptide as percentage of allele-specific positive control peptide, fluorescence, conformation-specific monoclonal antibody
Source text: as §1

MHC-II DRB1*11:01 [6] = molecular target: T6, MHC-II DRB1*11:01 (Homo sapiens, UniProt P01903+P01911, A100R/A169T/A87E/I96F/K41T/L162R/M171V/P40S/Q125H/Q178H/Q39Y/Q99D/R42S/S66Y/T262R/V115G/W38E); experiment: Cell-free REVEAL class II binding assay; conditions: signal of test peptide as percentage of allele-specific positive control peptide, fluorescence, conformation-specific monoclonal antibody
Source text: as §1

MHC-II DRB1*15:03 [7] = molecular target: T1, MHC-II DRB1*15:03; experiment: Cell-free REVEAL class II stability assay; conditions: half-life of peptide-MHC-II complex (h, capped at 120) x Binding Score / 100, conformational ELISA
Protocol: (§2) We measured the half-life of each peptide-MHC-II complex using REVEAL peptide-MHC affinity assays developed by ProImmune Ltd. (Oxford, UK). On-rates of peptides were measured over a 96-hr period at 10°C. A unique positive control peptide was used for each MHC-II allele. Samples of assembling peptide-MHC complexes were taken at defined time points and snap-frozen in liquid nitrogen prior to analysis. Assembly of peptide-MHC complexes was detected using a conformational ELISA involving an anti-HLA antibody. On-rates were calculated by fitting data to a one-phase association curve: [drawing 1] To determine the off-rates of the peptides, samples of dissociating complexes were taken at defined time points and frozen in liquid nitrogen prior to analysis. Percent denaturation of peptide-MHC complexes was also detected using a conformational ELISA. Off-rates were calculated by fitting data to a one-phase dissociation curve: [drawing 2] On- and off-rate half-life values (t1/2) were calculated from the rate constant (k) using the following equation: [drawing 3] To obtain a normalized stability score, the half-life values were multiplied by the Binding Score (see above) and divided by 100.

MHC-II DRB1*07:01 [8] = molecular target: T2, MHC-II DRB1*07:01; experiment: Cell-free REVEAL class II stability assay; conditions: half-life of peptide-MHC-II complex (h, capped at 120) x Binding Score / 100, conformational ELISA
Protocol: as §2

MHC-II DRB1*15:01 [9] = molecular target: T3, MHC-II DRB1*15:01; experiment: Cell-free REVEAL class II stability assay; conditions: half-life of peptide-MHC-II complex (h, capped at 120) x Binding Score / 100, conformational ELISA
Protocol: as §2

MHC-II DRB1*04:01 [10] = molecular target: T4, MHC-II DRB1*04:01; experiment: Cell-free REVEAL class II stability assay; conditions: half-life of peptide-MHC-II complex (h, capped at 120) x Binding Score / 100, conformational ELISA
Protocol: as §2

MHC-II DRB1*03:01 [11] = molecular target: T5, MHC-II DRB1*03:01; experiment: Cell-free REVEAL class II stability assay; conditions: half-life of peptide-MHC-II complex (h, capped at 120) x Binding Score / 100, conformational ELISA
Protocol: as §2

MHC-II DRB1*11:01 [12] = molecular target: T6, MHC-II DRB1*11:01; experiment: Cell-free REVEAL class II stability assay; conditions: half-life of peptide-MHC-II complex (h, capped at 120) x Binding Score / 100, conformational ELISA
Protocol: as §2

T6 sequence (P01903 26-254 limits assumed, other chains not shown): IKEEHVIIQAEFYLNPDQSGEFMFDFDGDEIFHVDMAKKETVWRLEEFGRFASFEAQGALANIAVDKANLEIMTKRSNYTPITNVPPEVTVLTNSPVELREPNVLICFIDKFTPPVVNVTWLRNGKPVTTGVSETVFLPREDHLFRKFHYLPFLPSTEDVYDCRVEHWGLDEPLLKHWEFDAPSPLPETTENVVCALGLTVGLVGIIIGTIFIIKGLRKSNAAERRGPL
T1 sequence (P01903 26-254, other chains not shown): as the sequence (P01903 26-254 limits assumed, other chains not shown) above
T5 sequence (P01903 26-254 limits assumed, other chains not shown): as above

Sequence | Binding Score (MHC-II DRB1*15:03 [1]) | Binding Score (MHC-II DRB1*07:01 [2]) | Binding Score (MHC-II DRB1*15:01 [3]) | Binding Score (MHC-II DRB1*04:01 [4]) | Binding Score (MHC-II DRB1*03:01 [5]) | Binding Score (MHC-II DRB1*11:01 [6]) | Stability Index (MHC-II DRB1*15:03 [7]) | Stability Index (MHC-II DRB1*07:01 [8]) | Stability Index (MHC-II DRB1*15:01 [9]) | Stability Index (MHC-II DRB1*04:01 [10]) | Stability Index (MHC-II DRB1*03:01 [11]) | Stability Index (MHC-II DRB1*11:01 [12])
AWRPQVNNPKEWLQV [synthetic wild type FVIII 15 mer peptide] | 0.2% | 0.0% | 0.5% | 17.7% | 0.0% | 0.1% | 0.1 | 0.0 | 0.6 | 10.2 | 0.0 | 0.0
AVGVSYWKASEGAEY [synthetic wild type FVIII 15 mer peptide] | 0.1% | 0.0% | 17.0% | 2.0% | 0.0% | 0.3% | 0.0 | 0.0 | 1.0 | 0.4 | 0.0 | 0.0
KMVYEDTLTLFPFSG [synthetic wild type FVIII 15 mer peptide] | 0.0% | 0.0% | 3.0% | 29.7% | 57.6% | 11.7% | 0.0 | 0.0 | 0.2 | 8.3 | 21.0 | 0.0
PENDIEKTDPWFAHR [synthetic wild type FVIII 15 mer peptide, region of ns-SNP R776G] | 0.3% | 0.0% | 0.1% | 0.7% | 0.0% | 2.9% | 0.0 | 0.0 | 0.1 | 0.1 | 0.0 | 0.1
TLTLFPFSGETVFMS [synthetic wild type FVIII 15 mer peptide] | 0.4% | 0.0% | 41.4% | 7.3% | 0.0% | 0.1% | 0.0 | 0.0 | 2.3 | 0.6 | 0.0 | 0.0
ASEGAEYDDQTSQRE [synthetic wild type FVIII 15 mer peptide] | 0.0% | 0.0% | 0.0% | 0.0% | 0.0% | 0.0% | 0.0 | 0.0 | 0.0 | 0.0 | 0.0 | 0.0
DVRPLYSRRLPKGVK [synthetic wild type FVIII 15 mer peptide, region of ns-SNP R484H] | 2.4% | 0.2% | 56.2% | 0.2% | 0.1% | 16.9% | 2.8 | 0.2 | 67.4 | 0.0 | 0.2 | 3.0
LQVDFQKTMKVTGVT [synthetic wild type FVIII 15 mer peptide, region of ns-SNP M2238V] | 1.5% | 0.1% | 4.4% | 11.6% | 30.7% | 235.0% | 0.0 | 0.1 | 0.3 | 0.9 | 13.5 | 62.0
PLLTRYLRIHPQSWV [synthetic wild type FVIII 15 mer peptide] | 10.7% | 1.7% | 714.7% | 12.1% | 0.0% | 62.8% | 12.8 | 2.0 | 857.7 | 1.4 | 0.0 | 8.8
EWLQVDFQKTMKVTG [synthetic wild type FVIII 15 mer peptide, region of ns-SNP M2238V] | 24.1% and 17.6% | 0.1% and 0.2% | – | 26.4% and 28.1% | 57.0% and 65.6% | 157.4% and 152.7% | 2.3 and 1.6 | 0.1 and 0.2 | – | 4.8 and 5.4 | 33.3 and 31.3 | 16.4 and 16.2
NPPIIARYIRLHPTH [synthetic wild type FVIII 15 mer peptide] | 15.2% | 0.2% | – | 5.0% | 0.4% | 76.5% | 18.2 | 0.2 | 1374.9 | 3.1 | 0.0 | 6.3
PKEWLQVDFQKTMKV [synthetic wild type FVIII 15 mer peptide, region of ns-SNP M2238V] | 0.0% | 0.0% | 0.4% and 0.9% | 5.1% and 4.1% | 36.8% and 60.5% | 8.6% and 4.2% | 0.0 | 0.0 | – | 0.3 and 0.2 | – | 0.3 and 0.2

Source: paper PMC3656107, “Polymorphisms in the F8 Gene and MHC-II Variants as Risk Factors for the Development of Inhibitory Anti-Factor VIII Antibodies during the Treatment of Hemophilia A: A Computational Assessment” (PLoS Computational Biology, 2013)
